System: HIV envelope-immune murine T cells (lymph node cells of gp160-immunized mice)
Assay: Lymph node T-cell proliferation assay ([3H]thymidine incorporation, stimulation index)
Format: cell-based, mouse
Settings: for S.I. (stimulation index, experimental cpm/control cpm): peptide 2 μM
From the text: B10.BR/SgSn (H-2^k) and B10.D2/nSn (H-2^d) mice were obtained from the Jackson Laboratories (Bar Harbor, Me.). B10.S(9R)/Sg (H-2^t4) and B10.A(5R)/SgSn (H-2^i5) mice were bred at the NIH breeding colony from breeding pairs obtained from D. J. Stimpfling (Great Falls, Mont.) and from Jackson Laboratories. Mice from the strain B10.S(9R) and B10.A(5R) were chosen because both I-A and I-E molecules of the H-2^s and H-2^b haplotypes are expressed in these recombinant strains, whereas I-E is not expressed in nonrecombinant H-2^b and H-2^s mice.
Mice were immunized s.c. with 10-30 ug of recombinant gp160 1:1 in complete Freund's adjuvant (CFA) at the base of the tail. (The dose was determined according to the purity of the gp160 preparation.) Eight to ten days later, periaortic and inguinal lymph nodes were removed and prepared in a single-cell suspension in complete T-cell medium in accordance with the method of Berkower et al, 1984, J. Immunol., 132:1370. Lymph node cells at 4×10^5 cells per well were added to each well of flat-bottomed 96-well microtiter plates (Costar, Cambridge, Mass.). The 44 peptides were added to the wells to make a final volume of 0.2 ml of medium, and each peptide was tested in triplicate. On the fourth day of culture, 1 uCi of [^3 H]thymidine (6.7 Ci/mmol; New England Nuclear, Boston, Mass.) was added to each well. Eighteen hours later, […] incorporation into DNA, as a measure of proliferation, was determined using liquid scintillation counting. The stimulation index represents a ratio of experimental counts over background counts without antigen.
Mice of the H-2^k, H-2^d, H-^i5, and H-2^t4 haplotypes were immunized s.c. in the tail with recombinant gp160 in CFA at a dose of 20-30 ug per mouse. Eight to ten days later the mice were sacrificed, the periaortic and inguinal lymph nodes were isolated, and proliferation of lymph node cells in the presence or absence of antigen was determined as described herein supra.

WDQSLKPCVKLTPLCV [HP-8, residues 119-134 of HIV envelope]
S.I. (stimulation index, experimental cpm/control cpm) (B10.A(5R) H-2^i5 mice): 1.51
S.I. (stimulation index, experimental cpm/control cpm) (B10.BR H-2^k mice): 2.24
S.I. (stimulation index, experimental cpm/control cpm) (B10.D2 H-2^d mice): 1.68
S.I. (stimulation index, experimental cpm/control cpm) (B10.S(9R) H-2^t4 mice): 1.23
T-cell proliferative response (in words) (H-2^k mice, initial screening): diminishing response
